This assay concerns P388 leukemia ip, CD2F1 mice, survival T/C. Nature of the assay: NCI In Vivo Anticancer Drug Screen. Data for tumor model P388 Leukemia (intraperitoneal) in CD2F1 (CDF1) mice. The settings on record: endpoint: median survival time, higher = longer survival. In outline:
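Mice carrying the transplanted tumor received test compound or vehicle. Survival was recorded in each group, and the value is the treated-group measurement divided by that of the vehicle-treated control group.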

[1] abbreviates: dose: 50.0 mg/kg/injection, schedule: Q01DX009 (ip), vehicle: saline with Tween-80.
Where [2] appears, read: dose: 100.0 mg/kg/injection, schedule: Q01DX009 (ip), vehicle: saline with Tween-80.
[3] abbreviates: dose: 200.0 mg/kg/injection, schedule: Q01DX009 (ip), vehicle: saline with Tween-80.
Where [4] appears, read: dose: 50.0 mg/kg/injection, schedule: Q01DX005 (ip), vehicle: saline with Tween-80.
Setting [5] is: dose: 100.0 mg/kg/injection, schedule: Q01DX005 (ip), vehicle: saline with Tween-80.
Where [6] appears, read: dose: 200.0 mg/kg/injection, schedule: Q01DX005 (ip), vehicle: saline with Tween-80.
The mark [7] stands for this setting: dose: 25.0 mg/kg/injection, schedule: Q04DX003 (ip), vehicle: saline with Tween-80.
Setting [8] is: dose: 50.0 mg/kg/injection, schedule: Q04DX003 (ip), vehicle: saline with Tween-80.
The mark [9] stands for this setting: dose: 100.0 mg/kg/injection, schedule: Q04DX003 (ip), vehicle: saline with Tween-80.
Setting [10] is: dose: 60.0 mg/kg/injection, schedule: Q01DX005 (ip), vehicle: saline with Tween-80.
Where [11] appears, read: dose: 120.0 mg/kg/injection, schedule: Q01DX005 (ip), vehicle: saline with Tween-80.
Setting [12] is: dose: 240.0 mg/kg/injection, schedule: Q01DX005 (ip), vehicle: saline with Tween-80.

Molecules are shown by their SMILES. “And” between values parts separate entries of the source, which are not always exact repeats. Identical values can stand only once. Inconclusive results and toxic doses are left out.

`CN(C)C(=O)NO`: the T/C is 103 % of control (dose: 60.0 mg/kg/injection, schedule: Q01DX005 (ip), vehicle: saline); 99 % of control (dose: 120.0 mg/kg/injection, schedule: Q01DX005 (ip), vehicle: saline); 97 % of control (dose: 240.0 mg/kg/injection, schedule: Q01DX005 (ip), vehicle: saline).

Turning to `CC(C)(OC(=O)NC(CC(N)=O)C(=O)O)c1ccc(N=Nc2ccccc2)cc1` (stereo unspecified), the T/C is 97 % of control under setting [1], 92 % of control under setting [2] and 92 % of control under setting [3].

In the case of `C=CCc1cccc2cc(C(=O)OCCCN(CC)CC)c(=O)oc12`, the T/C runs as follows: under setting [4], 95 % of control; under setting [5], 99 % of control.

With `S=c1nc(-c2ccccn2)c(-c2ccccn2)n[nH]1`, the T/C is, setting by setting: under setting [4], 116 % of control and 117 % of control; under setting [5], 121 % of control; under setting [6], 119 % of control and 120 % of control; (dose: 400.0 mg/kg/injection, schedule: Q01DX005 (ip), vehicle: saline with Tween-80) 120 % of control.

With `C=C1CC2(CCOc3ccc(Cl)cc32)OC1=O` (stereo unspecified), the T/C was 110 % of control under setting [7]; 118 % of control under setting [8]; 101 % of control and 116 % of control under setting [9]; 101 % of control (dose: 200.0 mg/kg/injection, schedule: Q04DX003 (ip), vehicle: saline with Tween-80).

Consider `NC(=O)CCNC(=O)CCCNC(=O)CCNC(=O)OCc1ccccc1`, for which the T/C was 96 % of control (dose: 12.5 mg/kg/injection, schedule: Q01DX009 (ip), vehicle: distilled water + Tween-80); 110 % of control (dose: 25.0 mg/kg/injection, schedule: Q01DX009 (ip), vehicle: distilled water + Tween-80); 97 % of control (dose: 50.0 mg/kg/injection, schedule: Q01DX009 (ip), vehicle: distilled water + Tween-80); 105 % of control (dose: 100.0 mg/kg/injection, schedule: Q01DX009 (ip), vehicle: distilled water + Tween-80); 96 % of control (dose: 200.0 mg/kg/injection, schedule: Q01DX009 (ip), vehicle: distilled water + Tween-80).

In the case of `COC(=O)C1=C(C)NC(C)=C(C(=O)OC)C1c1cc2ccccc2n2nnnc12`, the T/C under setting [10] is 95 % of control, the T/C under setting [11] was 98 % of control and the T/C under setting [12] was 88 % of control.

As to `COc1ccc(C2C3=C(CCCC3=O)OC3=C2C(=O)CCC3)cc1`, the T/C reads like this: under setting [10], 96 % of control; under setting [11], 99 % of control; under setting [12], 100 % of control.

For `Cc1nc2c(c(-c3ccccc3)n1)Cc1c(ccc3ccccc13)O2`, the T/C under setting [1] is 96 % of control; the T/C under setting [2] was 102 % of control; the T/C under setting [3] was 99 % of control; the T/C (dose: 400.0 mg/kg/injection, schedule: Q01DX009 (ip), vehicle: saline with Tween-80) is 92 % of control.

Turning to `Cc1c[nH]c2nc(C)n(-c3ccc(Cl)cc3)c(=N)c12`, the T/C by setting is: (dose: 12.5 mg/kg/injection, schedule: Q01DX005 (ip), vehicle: Klucel (hydroxypropylcellulose) (HPC)) 98 % of control; (dose: 25.0 mg/kg/injection, schedule: Q01DX005 (ip), vehicle: Klucel (hydroxypropylcellulose) (HPC)) 104 % of control; (dose: 50.0 mg/kg/injection, schedule: Q01DX005 (ip), vehicle: Klucel (hydroxypropylcellulose) (HPC)) 103 % of control.

Turning to `CC=C=CCN(C)Cc1ccccc1`, the T/C by setting is: (dose: 6.25 mg/kg/injection, schedule: Q01DX009 (ip), vehicle: saline) 107 % of control; (dose: 12.5 mg/kg/injection, schedule: Q01DX009 (ip), vehicle: saline) 94 % of control; (dose: 25.0 mg/kg/injection, schedule: Q01DX009 (ip), vehicle: saline) 109 % of control; (dose: 50.0 mg/kg/injection, schedule: Q04DX003 (ip), vehicle: Klucel (hydroxypropylcellulose) (HPC)) 108 % of control; (dose: 100.0 mg/kg/injection, schedule: Q04DX003 (ip), vehicle: Klucel (hydroxypropylcellulose) (HPC)) 88 % of control.

Regarding `CCOC(=O)c1sc(SSc2sc(C(=O)OCC)c(C)c2[N+](=O)[O-])c([N+](=O)[O-])c1C`, the T/C was 94 % of control (dose: 1.56 mg/kg/injection, schedule: Q01DX009 (ip), vehicle: saline with Tween-80); 101 % of control (dose: 3.12 mg/kg/injection, schedule: Q01DX009 (ip), vehicle: saline with Tween-80); 93 % of control (dose: 6.25 mg/kg/injection, schedule: Q01DX009 (ip), vehicle: saline with Tween-80); 88 % of control (dose: 12.5 mg/kg/injection, schedule: Q01DX009 (ip), vehicle: saline with Tween-80); 102 % of control under setting [7]; 93 % of control under setting [8]. Under setting [9], the T/C is 86 % of control and 97 % of control.

As for `COC(=O)C1CCOCCCOCCCOCCCOCCCOCCCC1=O` (stereo unspecified), the T/C runs as follows: under setting [4], 100 % of control; under setting [5], 105 % of control; under setting [6], 100 % of control.

Consider `C/C=C(\C)C(=O)OC1CC(C)(C)C2C3C(=O)C=C(C)C2C3(C)C1OC(=O)/C(C)=C/C` (stereo unspecified), for which the T/C was 97 % of control (dose: 75.0 mg/kg/injection, schedule: Q01DX001 (ip), vehicle: Klucel (hydroxypropylcellulose) (HPC)); 98 % of control (dose: 150.0 mg/kg/injection, schedule: Q01DX001 (ip), vehicle: Klucel (hydroxypropylcellulose) (HPC)); 101 % of control (dose: 300.0 mg/kg/injection, schedule: Q01DX001 (ip), vehicle: Klucel (hydroxypropylcellulose) (HPC)).

Take `COc1ccc([N+](=O)[O-])c(OC(C)=O)c1OC`: the T/C was 104 % of control (dose: 12.5 mg/kg/injection, schedule: Q01DX009 (ip), vehicle: other); 93 % of control (dose: 50.0 mg/kg/injection, schedule: Q01DX009 (ip), vehicle: other); 89 % of control (dose: 100.0 mg/kg/injection, schedule: Q01DX009 (ip), vehicle: other); 89 % of control (dose: 200.0 mg/kg/injection, schedule: Q01DX009 (ip), vehicle: other).

For `OCCN(CCO)N(CCO)CCO`, the T/C (dose: 50.0 mg/kg/injection, schedule: Q01DX005 (ip), vehicle: saline) was 96 % of control; the T/C (dose: 100.0 mg/kg/injection, schedule: Q01DX005 (ip), vehicle: saline) was 97 % of control; the T/C (dose: 200.0 mg/kg/injection, schedule: Q01DX005 (ip), vehicle: saline) is 97 % of control.

Consider `COC(SC)(SC)c1cc(-c2c(Cl)cccc2Cl)no1`, for which the T/C under setting [10] was 101 % of control, the T/C under setting [11] is 101 % of control and the T/C under setting [12] was 103 % of control.

Take `COc1cc2c(c(OC)c1OC)-c1ccc(OC)c(=O)cc1[C@@H](NC(=O)CCl)CC2`: the T/C (dose: 0.06 mg/kg/injection, schedule: Q01DX009 (ip), vehicle: Klucel (hydroxypropylcellulose) (HPC)) was 114 % of control; the T/C (dose: 0.12 mg/kg/injection, schedule: Q01DX009 (ip), vehicle: saline with Tween-80) is 166 % of control; the T/C (dose: 0.13 mg/kg/injection, schedule: Q01DX009 (ip), vehicle: saline with Tween-80) is 156 % of control; the T/C (dose: 0.15 mg/kg/injection, schedule: Q01DX009 (ip), vehicle: saline) is 103 % of control; the T/C (dose: 0.25 mg/kg/injection, schedule: Q01DX009 (ip), vehicle: Klucel (hydroxypropylcellulose) (HPC)) was 115 % of control; the T/C (dose: 0.25 mg/kg/injection, schedule: Q01DX009 (ip), vehicle: saline with Tween-80) is 153 % of control and 173 % of control. The T/C was 122 % of control (dose: 0.31 mg/kg/injection, schedule: Q01DX009 (ip), vehicle: saline); 93 % of control (dose: 0.5 mg/kg/injection, schedule: Q01DX009 (ip), vehicle: saline with Tween-80); 167 % of control (dose: 1.25 mg/kg/injection, schedule: Q01DX009 (ip), vehicle: saline).

As for `CCOc1c(N=Nc2ccc(OC)cc2)c(C)nn1C(N)=S`, the T/C reads like this: (dose: 15.0 mg/kg/injection, schedule: Q01DX005 (ip), vehicle: Klucel + Tween-80) 101 % of control; (dose: 30.0 mg/kg/injection, schedule: Q01DX005 (ip), vehicle: Klucel + Tween-80) 100 % of control; (dose: 60.0 mg/kg/injection, schedule: Q01DX005 (ip), vehicle: Klucel + Tween-80) 98 % of control and 123 % of control; (dose: 120.0 mg/kg/injection, schedule: Q01DX005 (ip), vehicle: Klucel + Tween-80) 110 % of control and 91 % of control; (dose: 240.0 mg/kg/injection, schedule: Q01DX005 (ip), vehicle: Klucel + Tween-80) 100 % of control.

These data come from PubChem BioAssay AID330 (DTP/NCI, 2004).
